Test results: patent publication US20150104426A1, “SKIN-CARE AGENT CONTAINING PLEUROTUS FERULAE FRUIT BODY EXTRACT OR PLEUROTUS FERULAE MYCELIUM EXTRACT” (AMI Cosmetic Co., Ltd., priority 2013, published 2015)

How the values were obtained:
tyrosinase = test: Inhibition of tyrosinase activity; type: biochemical, mushrooms; details: 0.2 wt %; L-tyrosine substrate
Protocol: Tyrosinase is an enzyme which facilitates oxidation of a substance called “tyrosine” in vivo and aids in production of melanin. Tyrosinase was isolated from mushrooms and purified, and was obtained from Sigma Aldrich Corp. A 0.1 mg/mL solution of L-tyrosine as a substrate in a 0.05 M sodium phosphate buffer solution (pH 6.8) was prepared. […] The test tube containing the reaction solution was quenched in ice to stop the reaction and transmissivity at a wavelength of 475 nm was measured using a spectrophotometer. A group treated with 0.5 mL of a buffer solution, instead of the Pleurotus ferulae fruiting body extract, the Pleurotus ferulae mycelium extract or the Pleurotus ferulae mycelium culture was used as a control group, and arbutin, a well-known whitening agent, was used as a positive control group. In addition, inhibition of tyrosinase activity by the respective samples were calculated in accordance with the following Equation 3. Inhibition of tyrosinase activity (%)=100−[(absorbance of reference group/absorbance of control group)]×100 Equation 3

B16F1 melanin cells = test: Inhibition of melanin synthesis in B16F1 melanin cells; type: cell-based, mice; details: 0.2 wt %; B16F1, 72 hours
Protocol: B16F1 melanocytes used for the present test example were cell lines derived from mice, which secrete a black pigment called “melanin”. The effect on inhibition of melanin synthesis of B16F1 melanin cells was measured as follows. […] After culturing for 72 hours, the cells were removed from trypsin-EDTA, counted and collected by centrifugation. Melanin in cells was assayed using a slightly modified version of Lotan's method (R Lotan and D Lotan, Cancer Res, 40: 3345-3350, 1980). Cell pellets were washed with PBS once and homogenized, 1 mL of a buffer solution (50 mM sodium phosphate, pH 6.8, 1% Triton X-100, 2 mM PMSF) was added to the cells, and the cells were crushed by vortex for 5 minutes. Melanin extracted by addition of 1N NaOH (10% DMSO) to a cell residue obtained by centrifugation (3,000 rpm, 10 minutes) was dissolved, absorbance of melanin at 405 nm was measured using a microplate reader, melanin was assayed, and inhibition of melanin production (%) of the sample was measured. In addition, a group not treated with the Pleurotus ferulae fruiting body extract, the Pleurotus ferulae mycelium extract or the Pleurotus ferulae mycelium culture was used as a control group, arbutin well-known as a whitening agent was used as a positive control group, and inhibition of melanin synthesis (%) by B16F1 melanin cells was calculated in accordance with Equation 4. […]

[1] = Antioxidative effect, DPPH method; type: biochemical; details: sample 0.1 wt %
Protocol: The DPPH method measures free radical scavenge activity based on reduction power using a free radical, called “DPPH (2,2-di(4-tert-octylphenyl)-1-picrylhydrazyl)”. In the present test example, decrease in absorbance caused by reduction of DPPH by a test substance was compared with an absorbance of a blank test solution, and free radical scavenge rate at a wavelength of 560 nm was measured. Measurement was performed as follows. In addition, BHT, a well-known antioxidant, was used as a positive control group.
0.025, 0.05, 0.1 and 0.25% by weight of different concentrations of the Pleurotus ferulae fruiting body extracts, the Pleurotus ferulae mycelium extracts and the Pleurotus ferulae mycelium cultures were prepared and pipetted into on 96-well plates, and DPPH prepared from a 100 μM methanol solution was added thereto such that the total volume of the solution reached 200 μl. The solution was allowed to stand at 37° C. for 30 minutes, absorbance (St) at 560 nm of the solution was measured and free radical scavenge activity (%) was calculated using the following Equation 2.
Free radical scavenge activity (%)=[…]×100 Equation 2 […]

[2] = Antioxidative effect, NBT method (xanthine/xanthine oxidase); type: biochemical; details: sample 0.1 wt %
Protocol: In accordance with the NBT method, active oxygen is produced by xanthine and xanthine oxidase, and absorbance at a wavelength of 560 nm of a blue substance produced upon reaction between the active oxygen and nitro blue tetrazolium (NBT) is measured. In the present test example, an active oxygen scavenge rate was measured in accordance with the following method. In addition, BHT, a well-known antioxidant, was used as a positive control group.
2.4 mL of 0.05M sodium carbonate (Na2CO3), 0.1 mL of a 3 mM xanthine solution, 0.1 mL of a 3 mM EDTA solution, 0.1 mL of a BSA solution and 0.1 mL of a 0.72 mM NBT solution were added to vials, 0.025, 0.05, 0.1 and 0.25% by weight of sample solutions were added respectively thereto, followed by allowing to stand at 25° C. for 10 minutes. After standing, 0.1 mL of a xanthine oxidase solution was added to the each solution which was then rapidly stirred and cultured at 25° C. for 20 minutes. 0.1 mL of a 6 mM copper chloride (CuCl2) solution was added to the culture solution to stop the reaction. Absorbance (St) at 560 nm was measured. […] Absorbance (Bt) was measured in the same manner as above. Absorbance (Bo) of the blank of the sample solution was measured in the same manner as above using distilled water instead of the xanthine oxidase solution. In addition, active oxygen scavenge rate (%) was calculated by the following Equation 1. […]

[3] = test system: Human keratinocytes HaCaT cell line; test: Scavenging of active oxygen in cells after UVB (DCFH-DA); type: cell-based; details: 0.01 wt %, UVB 20 mJ/cm^2
Protocol: A cell line used for the present test example was a Human keratinocytes HaCaT cell line obtained from Dr. Fusenig in the German Cancer Research Center. The cell line was seeded at a density of 2.0×10^4 cells per well into 96-well black plates for fluorescent measurement and cultured in DMEM (Dulbecco's Modified Eagle's Medium, FBS 10%, Gibco, USA) media containing penicillin and streptomycin at 37° C. in an atmosphere containing 5% CO2 for one day. […] Then, after 100 μl of different concentrates of HCSS was added to the test samples, fluorescence of DCF (dichlorofluorescein) initially oxidized with active oxygen was measured using a fluorescence plate reader (Ex: 485 nm, Em: 530 nm). Then, the samples were irradiated with UVB (20 mJ/cm^2), treated with 0.005, 0.01 and 0.02% by weight of the Pleurotus ferulae fruiting body extract, the Pleurotus ferulae mycelium extract and the Pleurotus ferulae mycelium culture and then measured for fluorescence using the fluorescence plate reader (Ex: 485 nm, Em: 530 nm). At this time, epigallocatechin gallate (EGCG) known to have potent antioxidative effects was used as a positive control group.

[4] = test system: matrix metalloproteinase (MMP-1); test: Repression of MMP-1 after ultraviolet irradiation (ELISA); type: cell-based; details: 0.02 wt %; human dermal fibroblasts, UVA 6.3 J/cm^2, 24 hours
Protocol: After UV irradiation and addition of samples (Pleurotus ferulae fruiting body extract, Pleurotus ferulae mycelium extract or Pleurotus ferulae mycelium culture, retinol), enzyme-linked immunosorbent assay (ELISA) was carried out to measure concentration of matrix metalloproteinase (MMP-1). Human dermal fibroblasts were irradiated with UVA at an energy of 6.3 J/cm^2 in a UV chamber, and conditions of the dose of ultraviolet radiation and culture time which maximize expression of matrix metalloproteinase (MMP-1) in fibroblasts were established through preliminary testing. A negative control group was wrapped with a foil and exposed to UVA environment for the same time. Here, UVA dose was measured using a UV radiometer. The cells during irradiation of UVA were cultured in the medium previously used. After UVA irradiation, the cells were cultured in a fresh medium containing samples for 24 hours and the medium were coated on 96-well plates. […] The cells were reacted with anti-mouse IgG (whole mouse, alkaline phosphatase conjugated) as a secondary antibody for about 60 minutes, and an alkaline phosphatase substrate solution (1 mg/mL ρ-nitrophenyl phosphate in diethanolamine buffer solution) at room temperature for 30 minutes, and absorbance at 405 nm was measured using a microplate reader. […]

type 1 procollagen = test: Promotion of type 1 procollagen biosynthesis in fibroblasts; type: cell-based; details: 0.001 wt %; human dermal fibroblasts, 24 hours
Protocol: Human dermal fibroblasts isolated from infant epidermal tissues were obtained from Modern Tissue Technology (MTT, Korea) and cultured at 1×10^4 cell/cm2 in a DMEM/F-12 (3:1) medium containing 10% fetal bovine serum (FBS). The human dermal fibroblasts grown to about a confluence of 80% were sub-cultured at a split ratio of 1:3 four times and were then used for the testing.
For the test to measure the amount of procollagen, fibroblasts were cultured to a confluence of 90% or more on a 48-well plate, the Pleurotus ferulae fruiting body extract, the Pleurotus ferulae mycelium […], and after 24 hours, the amount of procollagen released in the medium was measured using a procollagen type-1C-peptide EIA kit (MK101, Takara, Japan). In addition, TGF-β was used as a positive control group.

OC[C@H]1O[C@@H](Oc2ccc(O)cc2)[C@H](O)[C@@H](O)[C@@H]1O [Arbutin, arbutin]
Inhibition of tyrosinase activity (%) (tyrosinase): 54%
Inhibition of melanin synthesis (%) (B16F1 melanin cells): 55%

Cc1cc(C(C)(C)C)c(O)c(C(C)(C)C)c1 [BHT]
Free radical scavenge rate (antioxidative effect, %) [1]: 85%
Active oxygen scavenge rate (antioxidative effect, %) [2]: 89%

O=C(O[C@@H]1Cc2c(O)cc(O)cc2O[C@@H]1c1cc(O)c(O)c(O)c1)c1cc(O)c(O)c(O)c1 [EGCG, epigallocatechin gallate]
Effect of scavenging active oxygen (%) [3]: 45%

CC1=C(/C=C/C(C)=C/C=C/C(C)=C/CO)C(C)(C)CCC1 [Retinol, retinol]
Repression of MMP-1 (%) [4]: 36%

TGF-β
Promotion of procollagen biosynthesis (%) (type 1 procollagen): 125%
